Read-outs that look alike come from different tables or passages of the source.
Key:
Format in all cases: cell-based
[1] = molecular target: hA2a (Homo sapiens (Human), UniProt P29274); test: cAMP inhibition assay in hA2a/CHO cells; conditions: adenosine stimulation, read-out: cAMP & FLIPR IC50 (nM) hA2a
Method: (§1) hA2a/CHO, hA2b/CHO and mA2a/CHO (Genscript) were plated at 5×10^3 cells/well into 384-well polystyrene plates at the day of experiment. Compounds were pre-incubated with cells for 30 min at 37° C., 5% CO2. Then […] adenosine was added to the cells and incubated for 30 min at 37° C., 5% CO2. Detection reagent (CISBIO) was added and the plates were incubated for 60 min at room temperature. The signal was captured by Envision.
FLIPR™ and cAMP inhibition activities of exemplary compounds in different adenosine receptor over-expressing cell lines are shown in Table 4 below.

[2] = molecular target: hA2b (Homo sapiens (Human), UniProt P29275); test: cAMP inhibition assay in hA2b/CHO cells; conditions: adenosine stimulation, read-out: cAMP & FLIPR IC50 (nM) hA2b
hA2b, sequence (P29275 whole entry): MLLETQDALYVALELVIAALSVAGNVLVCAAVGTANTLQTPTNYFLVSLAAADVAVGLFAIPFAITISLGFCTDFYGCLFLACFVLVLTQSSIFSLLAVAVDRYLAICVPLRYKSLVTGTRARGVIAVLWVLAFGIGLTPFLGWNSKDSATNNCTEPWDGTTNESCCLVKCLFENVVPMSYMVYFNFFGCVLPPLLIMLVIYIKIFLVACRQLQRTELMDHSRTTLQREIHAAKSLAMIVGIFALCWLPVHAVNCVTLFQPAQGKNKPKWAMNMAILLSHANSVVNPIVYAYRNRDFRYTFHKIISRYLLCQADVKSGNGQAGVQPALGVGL
Method: as §1

[3] = molecular target: mA2a (Mus musculus (Mouse), UniProt Q60613); test: cAMP inhibition assay in mA2a/CHO cells; conditions: adenosine stimulation, read-out: cAMP & FLIPR IC50 (nM) mA2a
mA2a, sequence (Q60613 whole entry): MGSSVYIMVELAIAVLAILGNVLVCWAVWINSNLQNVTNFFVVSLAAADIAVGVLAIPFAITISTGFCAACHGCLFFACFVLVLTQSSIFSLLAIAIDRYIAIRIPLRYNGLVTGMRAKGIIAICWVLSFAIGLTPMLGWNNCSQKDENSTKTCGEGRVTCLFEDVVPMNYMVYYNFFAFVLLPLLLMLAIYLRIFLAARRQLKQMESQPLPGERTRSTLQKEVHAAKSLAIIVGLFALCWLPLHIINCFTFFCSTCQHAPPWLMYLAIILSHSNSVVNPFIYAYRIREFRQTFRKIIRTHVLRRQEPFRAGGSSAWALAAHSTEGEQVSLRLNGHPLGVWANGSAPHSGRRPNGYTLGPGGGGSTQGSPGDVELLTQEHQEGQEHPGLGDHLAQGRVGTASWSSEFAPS
Method: as §1

[4] = molecular target: hA1 (Homo sapiens (Human), UniProt P30542); test: FLIPR inhibition assay in hADORA1/CHO (hA1 expressing) cells; conditions: FLIPR calcium, adenosine stimulation
hA1, sequence (P30542 whole entry): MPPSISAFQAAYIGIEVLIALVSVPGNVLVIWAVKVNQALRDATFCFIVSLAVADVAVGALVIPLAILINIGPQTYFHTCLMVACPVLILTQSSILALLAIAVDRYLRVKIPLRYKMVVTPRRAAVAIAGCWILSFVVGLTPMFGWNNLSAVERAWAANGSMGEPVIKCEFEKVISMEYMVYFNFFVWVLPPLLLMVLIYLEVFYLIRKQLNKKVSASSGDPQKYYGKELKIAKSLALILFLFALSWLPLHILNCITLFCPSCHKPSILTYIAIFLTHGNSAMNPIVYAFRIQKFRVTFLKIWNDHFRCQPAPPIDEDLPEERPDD
Method: hADORA1/CHO (hA1 expressing) cells (Genscript) were plated at 1×10^4 cells/well into 384-well polystyrene plates one day before starting the experiment. On the day of experiment, the supernatant was discard and replaced with 40 µL of dye (FLIPR calcium 5 Assay Kit) per well and the plates were incubated for 60 mins at 37° C. plus 5% CO2. Then testing compounds were added at different concentrations for FLIPR™ inhibition assay. After a 400 s incubation with compound, […] adenosine was added into the cells, and the signal was captured by FLIPR.

[5] = hADORA1/CHO cells, read-out: cAMP & FLIPR IC50 (nM) hA1

hA2a, sequence (P29274 whole entry): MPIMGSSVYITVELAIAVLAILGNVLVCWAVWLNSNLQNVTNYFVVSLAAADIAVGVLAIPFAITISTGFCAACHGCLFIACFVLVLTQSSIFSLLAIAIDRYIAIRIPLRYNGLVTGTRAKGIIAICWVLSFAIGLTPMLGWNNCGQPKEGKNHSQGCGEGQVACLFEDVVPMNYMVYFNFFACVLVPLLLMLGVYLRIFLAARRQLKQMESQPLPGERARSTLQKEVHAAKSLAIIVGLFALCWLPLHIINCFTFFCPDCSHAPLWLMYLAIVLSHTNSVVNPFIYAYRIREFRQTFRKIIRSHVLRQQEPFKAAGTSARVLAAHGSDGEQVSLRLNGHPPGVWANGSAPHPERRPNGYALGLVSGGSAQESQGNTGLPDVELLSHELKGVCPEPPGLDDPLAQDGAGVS

Compound | IC50 [1] | IC50 [2] | IC50 [3] | IC50 [4, 5] | IC50 ([4]; cAMP & FLIPR IC50 (nM) hA1, hADORA1/CHO cells)
Cc1cc(-c2c(-c3ccc(F)cc3)nc(N)n3nc(Cc4ncccc4F)nc23)cn(C)c1=O [Example 29, 5-(5-amino-7-(4-fluorophenyl)-2-((3-fluoropyridin-2-yl)methyl)-[1,2,4]triazolo[1,5-c]pyrimidin-8-yl)-l,3-dimethylpyridin-2(1H)-one] | 3.8 nM | 91 nM | 5.1 nM | 4.3 nM | 
Cc1cnc2ccc(-c3c(N4CCC5(COC5)C4)nc(N)n4nc(Cc5ncccc5F)nc34)cn12 [Example 110, 2-((3-fluoropyridin-2-yl)methyl)-8-(3-methylimidazo[1,2-a]pyridin-6-yl)-7-(2-oxa-6-azaspiro[3.4]octan-6-yl)-[l,2,4]triazolo[l,5-c]pyrimidin-5-amine] | 795 nM | > 10000 nM | 7190 nM | 85.9 nM | 
Cc1nccc(-c2c(-c3ccc(F)cc3)nc(N)n3nc(Cc4c(F)cccc4F)nc23)c1C [Example 16, 2-(2,6-difluorobenzyl)-8-(2,3-dimethylpyridin-4-yl)-7-(4-fluorophenyl)-[1,2,4]triazolo[1,5-c] pyrimidin-5-amine] | 174 nM | 125 nM | 758 nM | 205 nM | 
Cc1cnc(-c2nc(N)n3nc(Cc4c(F)cccc4F)nc3c2-c2ccc(=O)n(C)c2)o1 [Example 26, 5-(5-amino-2-(2,6-difluorobenzyl)-7-(5-methyloxazol-2-yl)-[l,2,4]triazolo[l,5-c]pyrimidin-8-yl)-1-methylpyridin-2(1H)-one] | 15 nM | 457 nM | 34 nM | 33 nM | 
Cn1cc(-c2c(-c3cc(F)cc(F)c3)nc(N)n3nc(Cc4ncccc4F)nc23)ccc1=O [Example 76, 5-(5-amino-7-(3,5-difliiorophenyl)-2-((3-fluoropyridin-2-yl)methyl)-[1,2,4]triazolo[1,5-c]pyrimidin-8-yl)-1-methylpyridin-2(1H)-one] | 7.9 nM | 253 nM | 19 nM | 8.8 nM | 
Cn1cc(-c2c(-c3ccc(F)cc3)nc(N)n3nc(Cc4cccc(N)n4)nc23)ccc1=O [Example 35, 5-(5-amino-2-((6-aminopyridin-2-yl)methyl)-7-(4-fluorophenyl)-[1,2,4]triazolo[1,5-c]pyrimidin-8-yl)-1-methylpyridin-2(1H)-one] | 27 nM | 173 nM | 23 nM | 35 nM | 
Nc1nc(-c2ncco2)c(-c2ccc3nccn3c2)c2nc(Cc3ncccc3OC(F)F)nn12 [Example 74, 2-((3-(difluoromethoxy)pyridin-2-yl)methyI)-8-(imidazo[1,2-a]pyridin-6-yl)-7-(oxazol-2-yl)-[1,2, 4]triazolo[1,5-c]pyrimidin-5-amine] | 0.8 nM | 14 nM | 1.2 nM |  | 11 nM
Cn1cnc2ccc(-c3c(-c4ncco4)nc(N)n4nc(Cc5c(F)cccc5F)nc34)cc21 [Example 91, 2-(2,6-difluorobenzyl)-8-(1-methyl-1H-benzo[d]imidazol-6-yl)-7-(oxazol-2-yl)-[1,2,4]triazolo[1,5-c]pyrimidin-5-amine] | 2.6 nM | 102 nM | 5.1 nM | 206 nM | 
Cc1cnc2ccc(-c3c(-c4ccc(F)cc4)nc(N)n4nc(C[C@@H]5CCCN5C)nc34)cn12 [Example 122, (S)-7-(4-fluorophenyl)-8-(3-methylimidazo[1,2-a]pyridin-6-yl)-2-((l-methylpyrrolidin-2-yl)methyl)-[1,2,4]triazolo[1,5-c]pyrimidin-5-amine] | 0.3 nM | 93.5 nM | 2.6 nM | 67.7 nM | 
Cc1cnc2ccc(-c3c(-c4ccc(F)cc4)nc(N)n4nc(CC5CCOC5)nc34)cn12 (single isomer, unassigned; isomer 1) [Example 105-1, 7-(4-fluorophenyl)-8-(3-methylimidazo[1,2-a]pyridin-6-yl)-2-((tetrahydrofuran-3-yl)methyl)-[l,2, 4]triazolo[1,5-c]pyrimidin-5-amine(isomer 1)] | 0.1 nM | 47.5 nM | 1 nM | 14 nM | 
Nc1nc(-c2ccc(F)cc2)c(-c2ccc3nncn3c2)c2nc(Cc3ncccc3F)nn12 [Example 72, 8-([1,2,4]triazolo[4,3-a]pyridin-6-yl)-7-(4-fluorophenyl)-2-((3-fluoropyridin-2-yl)methyl)-[1,2,4]triazolo[1,5-c]pyrimidin-5-amine] | 37 nM | 1050 nM | 107 nM | 9.7 nM | 
Cc1cc(-c2c(-c3ccc(F)cc3)nc(N)n3nc(Cc4cccc(N(C)C)n4)nc23)ccn1 [Example 17, 2-((6-(dimethylamino)pyridin-2-yl)methyl)-7-(4-fluorophenyl)-8-(2-methylpyridin-4-yl)-[1,2,4]triazolo[1,5-f]pyrimidin-5-amine] | 43 nM | 4790 nM | 51 nM | 22 nM | 
Cc1coc(-c2nc(N)n3nc(Cc4c(F)cccc4F)nc3c2-c2ccc(=O)n(C)c2)n1 [Example 27, 5-(5-amino-2-(2,6-difluorobenzyl)-7-(4-methyloxazol-2-yl)-[1,2,4]triazolo[1,5-c]pyrimidin-8-yl)-1-methylpyridin-2(1H)-one] | 139 nM | 10000 nM | 245 nM | 112 nM | 
Nc1cc(-c2c(-c3ccc(F)cc3)nc(N)n3nc(Cc4ncccc4F)nc23)ccn1 [Example 38, 8-(2-aminopyridin-4-yl)-7-(4-fluorophenyl)-2-((3-fIuoropyridin-2-yl)methyl)-[1,2,4]triazolo[1,5-c]pyrmidin-5-amine] | 41 nM | 38 nM | 263 nM | 8.6 nM | 
Cc1cc(-c2c(-c3ncco3)nc(N)n3nc(Cc4c(F)cccc4F)nc23)cc(N)n1 [Example 81, 8-(2-amino-6-methylpyridin-4-yl)-2-(2,6-difluor obenzyl)-7-(oxazol-2-yl)-[1,2,4]triazolo[1,5-c] pyrimidin-5-amine] | 49 nM | 9090 nM | 164 nM | 5320 nM | 
Cc1cnc2ccc(-c3c(N4CCOCC4)nc(N)n4nc(Cc5ncccc5F)nc34)cn12 [Example 102, 2-((3-fluoropyridin-2-yl)methyl)-8-(3-methylimidazo[l,2-a]pyridin-6-yl)-7-morpholino-[l,2,4]tri azolo[1,5-c]pyrimidin-5-amine] | 2.6 nM | 121 nM | 11.2 nM | 27.2 nM | 
Cn1cc(-c2c(-c3ccccc3Cl)nc(N)n3nc(Cc4ncccc4F)nc23)ccc1=O [Example 78, 5-(5-amino-7-(2-chlorophenyl)-2-((3-fluoropyridin-2-yl)methyl)-[1,2,4]triazolo[1,5-c]pyrimidin-8-yl)-l-methylpyridin-2(1H)-one] | 135 nM | 1260 nM | 324 nM | 1160 nM | 
Cn1cc(-c2c(-c3ccc(F)cc3)nc(N)n3nc(Cc4cscn4)nc23)ccc1=O [Example 58, 5-[5-amino-7-(4-fluorophenyl)-2-[(1,3-thiazol-4-yl)methyl]-[1,2,4]triazolo[1,5-c]pyrimidin-8-yl]-1-methyl-1,2-dihydropyridin-2-one] | 29 nM | 2290 nM | 47 nM | 25 nM | 
CC(C)n1cc(-c2c(-c3ncco3)nc(N)n3nc(Cc4ncccc4F)nc23)ccc1=O [Example 80, 5-(5-amino-2-((3-fluoropyridin-2-yl)methyl)-7-(oxazol-2-yl)-[1,2,4]triazolo[1,5-c]pyrimidin-8-yl)-1-isopropylpyridin-2(1H)-one] | 3.6 nM | 186 nM | 4.9 nM | 25 nM | 
CC(C)n1cc(-c2c(-c3ncco3)nc(N)n3nc(Cc4c(F)cccc4F)nc23)ccc1=O [Example 79, 5-(5-amino-2-(2,6-difluorobenzy1)-7-(oxazol-2-yl)-[1,2,4]triazolo[1,5-c]pyrimidin-8-yl)-l-isopropylpyrdin-2(1H)-one] | 0.7 nM | 45 nM | 0.9 nM | 28 nM | 
Cn1cc(-c2c(-c3ccc(Cl)cc3)nc(N)n3nc(Cc4ncccc4F)nc23)ccc1=O [Example 56, 5-(5-amino-7-(4-chlorophenyl)-2-((3-fluoropyridin-2-yl)methyl)-[1,2,4]triazolo[1,5-c]pyrimidin-8-yl)-l-methylpyridin-2(1H)-one] | 22 nM | 142 nM | 36 nM | 34 nM | 
Cc1ccc(-c2nc(N)n3nc(Cc4c(F)cccc4F)nc3c2-c2ccc(=O)n(C)c2)cn1 [Example 24, 5-[5-amino-2-[(2,6-difluorophenyl)methyl]-7-(6-methylpyridin-3-yl)-[1,2,4]triazolo[1,5-c]pyrimidin-8-yl]-1-methyl-1,2-dihydropyridin-2-one] | 58 nM | 631 nM | 162 nM | 12 nM | 

Source: US10858365B2, “Triazolo-pyrimidine compounds and uses thereof” (Dizal (Jiangsu) Pharmaceutical Co., Ltd., priority 2018, dated 2020)
